From US6806273B1, “Compounds” (AstraZeneca AB, priority 1998, dated 2004) come the findings set out here.

The structures appear in SMILES notation.

In the case of `CCCCCSc1nc2ncsc2c(=O)[nH]1` [Example 8, 5-(Pentylthio)thiazolo[4,5-d]pyrimidin-7(4H)-one], the melting point (usually the temperature of the solid-liquid transition) was 208 to 209 °C. The compound `CC[C@@H](CO)Nc1nc(SCc2cccc(Oc3ccccc3)c2)nc2nc(N)sc12` [Example 112, (2S)-2-[[2-Amino-5-[[(3-phenoxyphenyl)methyl]thio]thiazolo[4,5-d]pyrimidin-7-yl]amino]-1-butanol] displayed a melting point of 111 to 114 °C.

The compound `Nc1nc2nc(SCc3cccc(Oc4ccccc4)c3)[nH]c(=O)c2s1` [Example 5, 2-Amino-5-[[(3-phenoxyphenyl)methyl]thio]thiazolo[4,5-d]pyrimidin-7(4H)-one] displayed a melting point of 266 to 269 °C.

`CCCCCSc1nc2nc(Br)sc2c(=O)[nH]1` [Example 11, 2-Bromo-5-(pentylthio)thiazolo[4,5-d]pyrimidin-7(4H)-one] registered a melting point of 189 to 191 °C. Turning to `CCCCCSc1nc(NC(CC)CO)c2sc(N)nc2n1` (racemic) [Example 6, (±)-2-[[2-Amino-5-(pentylthio)thiazolo[4,5-d]pyrimidin-7-yl]amino]-1-butanol], the melting point was 151 to 154 °C.

With `CC[C@H](CO)Nc1nc(SCc2cccc(Oc3ccccc3)c2)nc2nc(N)sc12` [Example 111, (2R)-2-[[2-Amino-5-[[(3-phenoxyphenyl)methyl]thio]thiazolo[4,5-d]pyrimidin-7-yl]amino]-1-butanol], the melting point is 108 to 111 °C. Compound `Nc1nc2nc(SCc3cccc(Oc4ccccc4)c3)nc(NC(CO)CO)c2s1` [Example 114, 2-[[2-Amino-5-[[(3-phenoxyphenyl)methyl]thio]thiazolo[4,5-d]pyrimidin-7-yl]amino]-1,3-propanediol] registered a melting point of 220 to 222 °C. Under `O=c1[nH]c(SCc2cccc(Oc3ccccc3)c2)nc2ncsc12` [Example 4, 5-[[(3-Phenoxyphenyl)methyl]thio]thiazolo[4,5-d]pyrimidin-7(4H)-one] stands 197 to 198 °C. Compound `CC(C)(CO)Nc1nc(SCc2cccc(Oc3ccccc3)c2)nc2nc(N)sc12` [Example 115, 2-[[2-Amino-5-[[(3-phenoxyphenyl)methyl]thio]thiazolo[4,5-d]pyrimidin-7-yl]amino]-2-methyl-1-propanol] had a melting point of 126 to 130 °C.

Compound `CCCCCSc1nc(NCCO)c2sc(N)nc2n1` [Example 7, 2-[[2-Amino-5-(pentylthio)thiazolo[4,5-d]pyrimidin-7-yl]amino]ethanol] gave a melting point of 192 to 195 °C.
